According to patent publication US10561703B2, “Method of modulating sex hormone levels using a sex hormone secretion modulator” (GEMVAX & KAEL CO., LTD., priority 2013, dated 2020):

System: Testosterone
Assay: Testosterone level in blood (serum CLIA) after repeated sc PEP-1
Type: in vivo, SD rats
Experimental: PEP-1 (peptide of SEQ ID NO: 1), lyophilized white powder, obtained according to the method mentioned in example 1 was dissolved in 0.9% of saline, considering the correction factor of PEP-1 (purity: 94.13%, content: 92.36%, correction factor: 1.15). 50 mg/mL stock solution was further diluted into 20 mg/mL, 2 mg/mL, and 1 mg/mL with 0.9% saline, and stored at 4° C. for a week until the use.
The purpose of this example is to confirm the change of sexual hormones in blood from SD rats with 7 days repeated daily administration of SEQ ID NO: 1 peptide, PEP-1. This experiment followed the Ethics Regulation of Animal Test by KAMSI Inc. (Korea Animal Medical Science Institute). In addition, this experiment, Non-GLP experiment, referred to the MFDS (Ministry of Food and Drug Safety) notification; Agent 2013-40 (5th April 2013), Principles of Good Laboratory Practice (1997).
SPF Rats (Crlj:CD(SD)) were purchased from ORIENTBio Inc. (Mokdong-ri, Buk-myeon, Gapyeong-gun, Gyeonggi-do, Republic of Korea). 75 male (6.5 weeks old and 190˜210 g) and 75 female (6.5 weeks old and 160˜180 g) rats were monitored for 4 days, and 64 of male and female rats (each) were selected for the experiment. Raising condition is as follows; 23±3° C. of temperature, […] of relative humidity, 10˜20 times/hr of number of air changes, 12 hours (8 a.m.˜8 p.m.) of lighting with 150˜300 Lux of intensity.
64 male and female […] (mentioned above) were divided into 8 groups. Administration regimen, for example, drugs, routes, dosages, and volumes were as follows:
The detailed administration regimen is as follows; once a day, twice a day and twice a week in each experimental group. Injection initiated at 10 a.m. every day, and each rat was injected at one minute intervals. Rats in Group 9, 10, 13 and 14 were injected twice a week. Administration of high dose test agent preceded that of low dose. The volume of injection was calculated using recently measured weight of rats, and it was 5 mL/kg. Subcutaneous injection was performed as follows; assistant tilted the back of rat upward, and experimenter sterilized the back of rat with 70% alcohol, followed by subcutaneous injection of test agent with 26 G syringe.
1.4 mL of blood sample (0.7 mL of serum) was collected after measurement of weight (Day 0). Next day (1 Day), 1.4 mL of blood sample (0.7 mL of serum) was collected twice after injection of test agent (4 hrs and 8 hrs after administration of test agent). For next 6 days (Day 2˜Day 7), 1.4 mL of blood was extracted once everyday (4 hours after injection of test agent). Dose and volume of test agent of each group followed the Table 3, and injection time zone was same every day. Blood was extracted from the jugular vein, and left at room temperature for 30 minutes. Serum was separated using centrifugation (10,000 rpm for 5 minutes), and stored at −70±5° C. in Deep freezer until the use. Blood extraction from each subject was done in the same time zone every day.
A CLIA (Chemi-Luminescence Immune Assay) Kit was used to analyze Testosterone, Estradiol E2, FSH (Follicle stimulating hormone), and LH (Luteinizing hormone). Analysis was completed within 48 hrs after blood extraction (Laboratory Medicine Department, Chung-Ang University Hospital), and detailed method is as follows; One-way ANOVA was used to verify the comparison between the vehicle and PEP-1, and between different doses of PEP-1. For further analysis, Duncan test was used as parametric test and Dunnett's test as non-parametric test. p<0.05 represents the statistical significance, and all statistical analysis was carried out with SPSS 10.1.
Testosterone was analyzed using the samples prepared from example 2. 15 μL of serum was used for analysis. Fundamentals of analysis is competitive immunoassay based on direct chemi-luminescent. As mentioned in example 2, CLIA (Chemi-luminescence immune assay) Kit was used for Testosterone analysis, following the manufacture's protocol. […]

EARPALLTSRLRFIPK (listed as Homo sapiens) [PEP-1, hormone secretion modulator / GnRH analog]
Testosterone level in blood (G3 Female 5 mg/kg sc 1/day x7, 7 days): 2.91 ng/dL | Testosterone level in blood (G4 Male 5 mg/kg sc 1/day x7, 4 hr): 0.12 ng/dL | Testosterone level in blood (G4 Male 5 mg/kg sc 1/day x7, 8 hr): 0.06 ng/dL | Testosterone level in blood (G4 Male 5 mg/kg sc 1/day x7, 2 days): 0.04 ng/dL | Testosterone level in blood (G4 Male 5 mg/kg sc 1/day x7, 3 days): 0.06 ng/dL | Testosterone level in blood (G4 Male 5 mg/kg sc 1/day x7, 4 days): 0.15 ng/dL | Testosterone level in blood (G4 Male 5 mg/kg sc 1/day x7, 5 days): 0.13 ng/dL | Testosterone level in blood (G4 Male 5 mg/kg sc 1/day x7, 6 days): 0.19 ng/dL | Testosterone level in blood (G4 Male 5 mg/kg sc 1/day x7, 7 days): 0.19 ng/dL | Testosterone level in blood (G4 Male 5 mg/kg sc 1/day x7, pre): 0.2 ng/dL | Testosterone level in blood (G6 Male 10 mg/kg sc 1/day x7, 4 hr): 0.15 ng/dL | Testosterone level in blood (G6 Male 10 mg/kg sc 1/day x7, 8 hr): 0.01 ng/dL | Testosterone level in blood (G6 Male 10 mg/kg sc 1/day x7, 2 days): 0.01 ng/dL | Testosterone level in blood (G6 Male 10 mg/kg sc 1/day x7, 3 days): 0.05 ng/dL | Testosterone level in blood (G6 Male 10 mg/kg sc 1/day x7, 4 days): 0.12 ng/dL | Testosterone level in blood (G6 Male 10 mg/kg sc 1/day x7, 5 days): 0.1 ng/dL | Testosterone level in blood (G6 Male 10 mg/kg sc 1/day x7, 6 days): 0.12 ng/dL | Testosterone level in blood (G6 Male 10 mg/kg sc 1/day x7, 7 days): 0.11 ng/dL | Testosterone level in blood (G6 Male 10 mg/kg sc 1/day x7, pre): 0.13 ng/dL | Testosterone level in blood (G8 Male 10 mg/kg sc 2/day x4, 4 hr): 0.12 ng/dL | Testosterone level in blood (G8 Male 10 mg/kg sc 2/day x4, 8 hr): 0.04 ng/dL | Testosterone level in blood (G8 Male 10 mg/kg sc 2/day x4, 2 days): 0.01 ng/dL | Testosterone level in blood (G8 Male 10 mg/kg sc 2/day x4, 3 days): 0.07 ng/dL | Testosterone level in blood (G8 Male 10 mg/kg sc 2/day x4, 4 days): 0.05 ng/dL | Testosterone level in blood (G8 Male 10 mg/kg sc 2/day x4, 5 days): 0.18 ng/dL | Testosterone level in blood (G8 Male 10 mg/kg sc 2/day x4, 6 days): 0.08 ng/dL | Testosterone level in blood (G8 Male 10 mg/kg sc 2/day x4, 7 days): 0.12 ng/dL | Testosterone level in blood (G8 Male 10 mg/kg sc 2/day x4, pre): 0.17 ng/dL | Testosterone level in blood (G9 Female 10 mg/kg sc 2/week x2 (days 1,7), 4 hr): 7.92 ng/dL | Testosterone level in blood (G9 Female 10 mg/kg sc 2/week x2 (days 1,7), 8 hr): 7.57 ng/dL | Testosterone level in blood (G9 Female 10 mg/kg sc 2/week x2 (days 1,7), 2 days): 0.9 ng/dL | Testosterone level in blood (G9 Female 10 mg/kg sc 2/week x2 (days 1,7), 3 days): 1.05 ng/dL | Testosterone level in blood (G9 Female 10 mg/kg sc 2/week x2 (days 1,7), 4 days): 1.21 ng/dL | Testosterone level in blood (G9 Female 10 mg/kg sc 2/week x2 (days 1,7), 5 days): 1.73 ng/dL | Testosterone level in blood (G9 Female 10 mg/kg sc 2/week x2 (days 1,7), 6 days): 1.67 ng/dL | Testosterone level in blood (G9 Female 10 mg/kg sc 2/week x2 (days 1,7), 7 days): 9.43 ng/dL | Testosterone level in blood (G9 Female 10 mg/kg sc 2/week x2 (days 1,7), pre): 2.3 ng/dL | Testosterone level in blood (G10 Male 10 mg/kg sc 2/week x2 (days 1,7), 4 hr): 0.16 ng/dL | Testosterone level in blood (G10 Male 10 mg/kg sc 2/week x2 (days 1,7), 8 hr): 0.02 ng/dL | Testosterone level in blood (G10 Male 10 mg/kg sc 2/week x2 (days 1,7), 2 days): 0 ng/dL | Testosterone level in blood (G10 Male 10 mg/kg sc 2/week x2 (days 1,7), 3 days): 0.06 ng/dL | Testosterone level in blood (G10 Male 10 mg/kg sc 2/week x2 (days 1,7), 4 days): 0.17 ng/dL | Testosterone level in blood (G10 Male 10 mg/kg sc 2/week x2 (days 1,7), 5 days): 0.08 ng/dL | Testosterone level in blood (G10 Male 10 mg/kg sc 2/week x2 (days 1,7), 6 days): 0.1 ng/dL | Testosterone level in blood (G10 Male 10 mg/kg sc 2/week x2 (days 1,7), 7 days): 0.13 ng/dL | Testosterone level in blood (G10 Male 10 mg/kg sc 2/week x2 (days 1,7), pre): 0.15 ng/dL | Testosterone level in blood (G11 Female 100 mg/kg sc 1/day x7, 4 hr): 7.73 ng/dL | Testosterone level in blood (G11 Female 100 mg/kg sc 1/day x7, 8 hr): 7.41 ng/dL | Testosterone level in blood (G11 Female 100 mg/kg sc 1/day x7, 2 days): 3.92 ng/dL | Testosterone level in blood (G11 Female 100 mg/kg sc 1/day x7, 3 days): 1.55 ng/dL | Testosterone level in blood (G11 Female 100 mg/kg sc 1/day x7, 4 days): 0.63 ng/dL | Testosterone level in blood (G11 Female 100 mg/kg sc 1/day x7, 5 days): 0.55 ng/dL
